Results taken from patent US20240360148A1 (SUVALENT THERAPEUTICS, INC., priority 2021, published 2024).

System: sumoylation levels (SUMO 2/3 conjugates) in HCT-116 cells
Assay: HCT-116 4 Hour Cell Assay (Western, SUMO 2/3 conjugates)
Format: cell-based
Conditions: Homo sapiens, HCT-116, 4 h, 4 h treatment, Anti-Sumo 2-3 immunoblot, read-out: HCT-116 Western 4 h IC50 (μM) Ave
In short: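 IC50 derived from fluorescent immunoblot quantification of SUMO 2/3 conjugate bands, normalized to total protein, after non-reducing SDS-PAGE. Lysis used RIPA plus NEM; exposure was 4 h across 11 concentrations, three-fold serial dilution starting at 25 μM.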

SMILES | IC50
C=CC(=O)N1Cc2sc(C#N)c(C)c2[C@H](c2cccc(F)c2-c2cn(CC)nc2C(F)(F)F)C1 [Compound 222] | 0.0974 µM
CCn1cc(-c2c(F)cccc2[C@@H]2CN(C(=O)/C=C/CN(C)C)Cc3sc(C#N)c(C)c32)c(C(F)(F)F)n1 [Example 46, (S, E)-6-(4-(dimethylamino)but-2-enoyl)-4-(2-(1-ethyl-3-(trifluoromethyl)-1 H-pyrazol-4-yl)-3-fluorophenyl)-3-methyl-4,5,6,7-tetrahydrothieno[2,3-c]pyridine-2-carbonitrile] | 0.0953 µM
CCn1cc(-c2c(F)cccc2[C@@H]2CN(C(=O)/C=C/CNC)Cc3sc(C#N)cc32)c(C(F)(F)F)n1 [Example 50] | 0.157 µM
